In patent US20240228458A1, “PYRIMIDINE DERIVATIVE HAVING PROTEIN KINASE INHIBITORY ACTIVITY, AND THERAPEUTIC PHARMACEUTICAL COMPOSITION COMPRISING SAME” (THERAPEX CO., LTD., priority 2021, published 2024):

Key:
Format in all cases: cell-based
parental Ba/F3 cell line = assay: Growth inhibition (GI50) of the parental Ba/F3 cell line (not introduced with EGFR variants), Celltiter glo; details: Mus musculus, BaF3, 72 h, parental Ba/F3 cells
Outline: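 Viable cell count by CellTiter-Glo after 72 h at 37 °C gave GI50 values (μM, 50% growth inhibition). Cells lacking EGFR variants were seeded at 100,000 cells/ml and dosed 4 h later with 4-fold serial dilutions from a 2 mM stock, 0.5% DMSO.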

[1] = tested on: Ba/F3 cells expressing del19/T790M (EGFR-DT); assay: Growth inhibition (GI50) of Ba/F3 cells expressing del19/T790M (EGFR-DT), Celltiter glo; details: Mus musculus, BaF3, 72 h
Outline: (§1)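 Steps: plate engineered Ba/F3 cells (100,000 cells/ml); wait 4 h; add compound as a 4-fold, 10-point dilution series made from 2 mM stock, DMSO 0.5%; incubate 72 h at 37 °C under 5% CO2; measure ATP-based viability with CellTiter-Glo; calculate GI50.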

[2] = tested on: Ba/F3 cells expressing del19/T790M/C797S (EGFR-DTC); assay: Growth inhibition (GI50) of Ba/F3 cells expressing del19/T790M/C797S (EGFR-DTC), Celltiter glo; details: Mus musculus, BaF3, 72 h
Outline: as §1

[3] = tested on: Ba/F3 cells expressing EGFR-wt; assay: Growth inhibition (GI50) of Ba/F3 cells expressing EGFR-wt, Celltiter glo; details: Mus musculus, BaF3, 72 h
Outline: as §1

[4] = tested on: Ba/F3 cells expressing L858R/T790M (EGFR-LT); assay: Growth inhibition (GI50) of Ba/F3 cells expressing L858R/T790M (EGFR-LT), Celltiter glo; details: Mus musculus, BaF3, 72 h
Outline: as §1

[5] = tested on: Ba/F3 cells expressing L858R/T790M/C797S (EGFR-LTC); assay: Growth inhibition (GI50) of Ba/F3 cells expressing L858R/T790M/C797S (EGFR-LTC), Celltiter glo; details: Mus musculus, BaF3, 72 h
Outline: as §1

Row | Compound | GI50 (parental Ba/F3 cell line) | GI50 [1] | GI50 [2] | GI50 [3] | GI50 [4] | GI50 [5]
1 | Cc1cc(Nc2ncc(Br)c(Nc3cc4c(cc3N(C)S(C)(=O)=O)CCO4)n2)c(Cl)cc1N1CCC(N2CCN(C)CC2)CC1 [Example 251, N-(6-((5-bromo-2-((2-chloro-5-methyl-4-(4-(4-methylpiperazin-1-yl)piperidin-1-yl)phenyl)amino)pyrimidin-4-yl)amino)-2,3-dihydrobenzofuran-5-yl)-N-methylmethanesulfonamide] | 2 to 10 µM | 0.001 to 0.025 µM | 0.025 to 0.1 µM | 0.1 to 0.5 µM | 0.025 to 0.1 µM | 0.001 to 0.025 µM
2 | COc1cc(N2CCC(N3CCN(C)CC3)CC2)c(Cl)cc1Nc1ncc(Br)c(Nc2cc3c(cc2N(C)S(C)(=O)=O)CCO3)n1 [Example 252, N-(6-((5-bromo-2-((5-chloro-2-methoxy-4-(4-(4-methylpiperazin-1-yl)piperidin-1-yl)phenyl)amino)pyrimidin-4-yl)amino)-2,3-dihydrobenzofuran-5-yl)-N-methylmethanesulfonamide] | 2 to 10 µM | 0.001 to 0.025 µM | 0.025 to 0.1 µM | 0.025 to 0.1 µM | 0.001 to 0.025 µM | 0.001 to 0.025 µM
3 | CN1CCN(C2CCN(c3cc(Cl)c(Nc4ncc(Br)c(Nc5cc6c(cc5N(C)S(C)(=O)=O)CCO6)n4)cc3Cl)CC2)CC1 [Example 253, N-(6-((5-bromo-2-((2,5-dichloro-4-(4-(4-methylpiperazin-1-yl)piperidin-1-yl)phenyl)amino)pyrimidin-4-yl)amino)-2,3-dihydrobenzofuran-5-yl)-N-methylmethanesulfonamide] | 0.1 to 0.5 µM | 0.025 to 0.1 µM | 0.001 to 0.025 µM | 0.5 to 2 µM | 0.025 to 0.1 µM | 0.025 to 0.1 µM
4 | CCc1cc(Nc2ncc(Br)c(Nc3cc4c(cc3N(C)S(C)(=O)=O)CCO4)n2)c(OC)cc1N1CCC(N2CCN(C)CC2)CC1 [Example 254, N-(6-((5-bromo-2-((5-ethyl-2-methoxy-4-(4-(4-methylpiperazin-1-yl)piperidin-1-yl)phenyl)amino)pyrimidin-4-yl)amino)-2,3-dihydrobenzofuran-5-yl)-N-methylmethanesulfonamide] | 0.5 to 2 µM | 0.001 to 0.025 µM | 0.001 to 0.025 µM | 0.5 to 2 µM | 0.025 to 0.1 µM | 0.025 to 0.1 µM
5 | COc1cc(N2CCC(N3CCN(C(F)(F)F)CC3)CC2)c(C)cc1Nc1ncc(Br)c(Nc2cc3c(cc2N(C)S(C)(=O)=O)CCO3)n1 [Example 255, N-(6-((5-bromo-2-((2-methoxy-5-methyl-4-(4-(4-(trifluoromethyl)piperazin-1-yl)piperidin-1-yl)phenyl)amino)pyrimidin-4-yl)amino)-2,3-dihydrobenzofuran-5-yl)-N-methylmethanesulfonamide] | 2 to 10 µM | 0.025 to 0.1 µM | 0.025 to 0.1 µM | 2 to 10 µM | 0.1 to 0.5 µM | 0.1 to 0.5 µM
6 | COc1cc(N2CCC(N3CCN(C)CC3)CC2)c(F)cc1Nc1ncc(Br)c(Nc2cc3c(cc2N(C)S(C)(=O)=O)CCO3)n1 [Example 256, N-(6-((5-bromo-2-((5-fluoro-2-methoxy-4-(4-(4-methylpiperazin-1-yl)piperidin-1-yl)phenyl)amino)pyrimidin-4-yl)amino)-2,3-dihydrobenzofuran-5-yl)-N-methylmethanesulfonamide] | 0.1 to 0.5 µM | 0.001 to 0.025 µM | 0.025 to 0.1 µM | 0.1 to 0.5 µM | 0.1 to 0.5 µM | 0.1 to 0.5 µM
7 | CN1CCN(C2CCN(c3cc(Cl)c(Nc4ncc(Cl)c(Nc5cc6c(cc5N(C)S(C)(=O)=O)CCO6)n4)cc3Cl)CC2)CC1 [Example 259, N-(6-((5-chloro-2-((2,5-dichloro-4-(4-(4-methylpiperazin-1-yl)piperidin-1-yl)phenyl)amino)pyrimidin-4-yl)amino)-2,3-dihydrobenzofuran-5-yl)-N-methylmethanesulfonamide] | 0.5 to 2 µM | 0.025 to 0.1 µM | 0.001 to 0.025 µM | 0.5 to 2 µM | 0.025 to 0.1 µM | 0.1 to 0.5 µM
8 | COc1ccc(N(C)S(C)(=O)=O)c(Nc2nc(Nc3cc(C)c(N4CCC(N5CCN(C)CC5)CC4)cc3OC)ncc2Cl)c1 [Example 260, N-(2-((5-chloro-2-((2-methoxy-5-methyl-4-(4-(4-methylpiperazin-1-yl)piperidin-1-yl)phenyl)amino)pyrimidin-4-yl)amino)-4-methoxyphenyl)-N-methylmethanesulfonamide] | 2 to 10 µM | 0.001 to 0.025 µM | 0.1 to 0.5 µM | 0.1 to 0.5 µM | 0.025 to 0.1 µM | 0.1 to 0.5 µM
9 | COc1cc(N2CCC(N3CCN(C4CC4)CC3)CC2)c(C)cc1Nc1ncc(Br)c(Nc2cc3c(cc2N(C)S(C)(=O)=O)CCO3)n1 [Example 261, N-(6-((5-bromo-2-((4-(4-(4-cyclopropylpiperazin-1-yl)piperidin-1-yl)-2-methoxy-5-methylphenyl)amino)pyrimidin-4-yl)amino)-2,3-dihydrobenzofuran-5-yl)-N-methylmethanesulfonamide] | 2 to 10 µM | 0.001 to 0.025 µM | 0.1 to 0.5 µM | 0.025 to 0.1 µM | 0.025 to 0.1 µM | 0.025 to 0.1 µM
10 | COc1cc(N2CCC(N3CCC(N(C)C)C3)CC2)c(C)cc1Nc1ncc(Br)c(Nc2cc3c(cc2N(C)S(C)(=O)=O)CCO3)n1 (stereo not drawn) [Example 262, N-(6-((5-bromo-2-((4-(4-(3-(dimethylamino)pyrrolidin-1-yl)piperidin-1-yl)-2-methoxy-5-methylphenyl)amino)pyrimidin-4-yl)amino)-2,3-dihydrobenzofuran-5-yl)-N-methylmethanesulfonamide] | 0.025 to 0.1 µM | 0.001 to 0.025 µM | 0.025 to 0.1 µM | 0.1 to 0.5 µM | 0.025 to 0.1 µM | 0.025 to 0.1 µM
11 | Cc1cc(Nc2ncc(Cl)c(Nc3cc4c(cc3N(C)S(C)(=O)=O)CCO4)n2)c(Cl)cc1N1CCC(N2CCN(C)CC2)CC1 [Example 263, N-(6-((5-chloro-2-((2-chloro-5-methyl-4-(4-(4-methylpiperazin-1-yl)piperidin-1-yl)phenyl)amino)pyrimidin-4-yl)amino)-2,3-dihydrobenzofuran-5-yl)-N-methylmethanesulfonamide] | > 10 µM | 0.1 to 0.5 µM | 0.5 to 2 µM | 0.5 to 2 µM | 0.1 to 0.5 µM | 0.1 to 0.5 µM
12 | COc1cc(N2CCC(N3CCCN(C)CC3)CC2)c(Cl)cc1Nc1ncc(Cl)c(Nc2cc3c(cc2N(C)S(C)(=O)=O)CCO3)n1 [Example 264, N-(6-((5-chloro-2-((5-chloro-2-methoxy-4-(4-(4-methyl-1,4-diazepan-1-yl)piperidin-1-yl)phenyl)amino)pyrimidin-4-yl)amino)-2,3-dihydrobenzofuran-5-yl)-N-methylmethanesulfonamide] | 2 to 10 µM | 0.001 to 0.025 µM | 0.025 to 0.1 µM | 0.1 to 0.5 µM | 0.001 to 0.025 µM | 0.025 to 0.1 µM
13 | COc1cc(N2CCC(N3CCCN(C)CC3)CC2)c(C)cc1Nc1ncc(Cl)c(Nc2cc3c(cc2N(C)S(C)(=O)=O)CCO3)n1 [Example 265, N-(6-((5-chloro-2-((2-methoxy-5-methyl-4-(4-(4-methyl-1,4-diazepan-1-yl)piperidin-1-yl)phenyl)amino)pyrimidin-4-yl)amino)-2,3-dihydrobenzofuran-5-yl)-N-methylmethanesulfonamide] | 0.5 to 2 µM | 0.025 to 0.1 µM | 0.025 to 0.1 µM | 0.1 to 0.5 µM | 0.025 to 0.1 µM | 0.025 to 0.1 µM
14 | COc1cc(N2CCC(N3CCN(C4CC4)CC3)CC2)c(C)cc1Nc1ncc(Cl)c(Nc2cc3c(cc2N(C)S(C)(=O)=O)CCO3)n1 [Example 266, N-(6-((5-chloro-2-((4-(4-(4-cyclopropylpiperazin-1-yl)piperidin-1-yl)-2-methoxy-5-methylphenyl)amino)pyrimidin-4-yl)amino)-2,3-dihydrobenzofuran-5-yl)-N-methylmethanesulfonamide] | 2 to 10 µM | 0.025 to 0.1 µM | 0.5 to 2 µM | 2 to 10 µM | 0.1 to 0.5 µM | 0.1 to 0.5 µM
15 | COc1cc(N2CCC(N3CCCC(N(C)C)C3)CC2)c(C)cc1Nc1ncc(Cl)c(Nc2cc3c(cc2N(C)S(C)(=O)=O)CCO3)n1 (stereo not drawn) [Example 267, N-(6-((5-chloro-2-((4-(3-(dimethylamino)-[1,4′-bipiperidin]-1′-yl)-2-methoxy-5-methylphenyl)amino)pyrimidin-4-yl)amino)-2,3-dihydrobenzofuran-5-yl)-N-methylmethanesulfonamide] | 0.5 to 2 µM | 0.025 to 0.1 µM | 0.1 to 0.5 µM | 0.5 to 2 µM | 0.025 to 0.1 µM | 0.025 to 0.1 µM
16 | CN1CCN(C2CCN(c3cc(F)c(Nc4ncc(Cl)c(Nc5cc6c(cc5NS(C)(=O)=O)CCO6)n4)cc3F)CC2)CC1 [Example 268, N-(6-((5-chloro-2-((2,5-difluoro-4-(4-(4-methylpiperazin-1-yl)piperidin-1-yl)phenyl)amino)pyrimidin-4-yl)amino)-2,3-dihydrobenzofuran-5-yl)methanesulfonamide] | 2 to 10 µM | 0.025 to 0.1 µM | 0.1 to 0.5 µM | 0.5 to 2 µM | 0.025 to 0.1 µM | 0.1 to 0.5 µM
